Columns and labels:
hMCH-1R = target: T1, hMCH-1R (Homo sapiens, UniProt Q99705); assay: MCH-1 receptor binding test (125I-MCH binding to membranes of hMCH-1R transfected CHO/Galpha16 cells); conditions: displacement of 125I-MCH, hMCH-1R CHO/Galpha16 membranes
T1 construct: expressed in transfected cells
Procedure: MCH-1 Receptor Binding Test
Method: MCH binding to hMCH-1R transfected cells
Test cell: hMCH-1R stably transfected into CHO/Galphal 6 cells
Membranes from CHO/Galphal6 cells stably transfected with human hMCH-1R are resuspended using a syringe (needle 0.6×25 mm) and diluted in test buffer (50 mM HEPES, 10 mM MgCl2, 2 mM EGTA, pH 7.00; 0.1% bovine serum albumin (protease-free), 0.021% bacitracin, 1 μg/ml aprotinin, 1 μg/ml leupeptin and 1 μM phosphoramidone) to a concentration of 5 to 15 μg/ml.
After the incubation the reaction is filtered using a cell harvester through 0.5% PEI treated fibreglass filters (GF/B, Unifilter Packard). The membrane-bound radioactivity retained on the filter is then determined after the addition of scintillator substance (Packard Microscint 20) in a measuring device (TopCount of Packard).
The non-specific binding is defined as bound radioactivity in the presence of 1 micromolar MCH during the incubation period.
The analysis of the concentration binding curve is carried out on the assumption of one receptor binding site.

T1 sequence (Q99705 whole entry): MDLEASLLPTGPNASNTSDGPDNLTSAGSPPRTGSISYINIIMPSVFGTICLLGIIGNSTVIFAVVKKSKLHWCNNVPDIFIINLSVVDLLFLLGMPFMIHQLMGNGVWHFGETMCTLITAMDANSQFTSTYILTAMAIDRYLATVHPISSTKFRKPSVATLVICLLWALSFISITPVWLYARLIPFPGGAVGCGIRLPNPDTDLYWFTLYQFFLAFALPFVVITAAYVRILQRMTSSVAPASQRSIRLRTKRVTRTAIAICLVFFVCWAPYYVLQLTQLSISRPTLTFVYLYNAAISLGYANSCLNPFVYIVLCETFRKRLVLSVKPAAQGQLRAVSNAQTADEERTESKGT

SMILES	melting point	IC50 (hMCH-1R)
CC1CCN(Cc2ccc(NCCCc3ccc(-c4ccc(Cl)cc4)cc3)cc2)CC1 [Example 1.1, [3-(4′-Chloro-biphenyl-4-yl)-propyl]-[4-(4-methyl-piperidin-1-ylmethyl)-phenyl]-amine]	69 to 71 °C	
COc1ccc(-c2ccc(CCCNc3ccc(CN4CCC(NC(C)=O)C4)cc3)nn2)cc1 (centres unmarked) [Example 3.30, N-[1-(4-{3-[6-(4-Methoxy-phenyl)-pyridazin-3-yl]-propylamino}-benzyl)-pyrrolidin-3-yl]-acetamide]		79 nM
CN(C)Cc1ccc(NCCCc2ccc(-c3ccc(Cl)cc3)cc2)cc1 [Example 4.1, [3-(4′-Chloro-biphenyl-4-yl)-propyl]-(4-dimethylaminomethyl-phenyl)-amine]	85 to 90 °C	
OC1(C(F)(F)F)CCN(Cc2ccc(NCCCc3ccc(-c4ccc(Cl)cc4)cc3)nc2)CC1 [Example 5.1]	170 to 172 °C	
COc1ccc(-c2ccc(NCCCc3ccc(CN4CCC(O)CC4)cc3)nn2)cc1 [Example 9.1, 1-(4-{3-[6-(4-Methoxy-phenyl)-pyridazin-3-ylamino]-propyl}-benzyl)-piperidin-4-ol]		174 nM
CCN(CC)CCOc1ccc(OCCOc2ccc(I)cc2Cl)cc1Cl [Example 12.1, (2-{2-Chloro-4-[2-(2-chloro-4-iodo-phenoxy)-ethoxy]-phenoxy}-ethyl)-diethyl-amine]		172 nM
COc1ccc(-c2ccc(CCCNc3ccc4c(c3)CN(C)CC4)nn2)cc1 [Example 19.1, {3-[6-(4-Methoxy-phenyl)-pyridazin-3-yl]-propyl}-(2-methyl-1,2,3,4-tetrahydro-isoquinolin-7-yl)-amine]	130 to 133 °C	
Oc1ccc(-c2ccc(CCCNc3ccc(CN4CCC(O)(C(F)(F)F)CC4)cc3)nn2)cc1 [Example 21.1]	200 to 204 °C	
